In patent US9718825B2, “N-(4-(azaindazol-6-yl)-phenyl)-sulfonamides and their use as pharmaceuticals” (priority 2013, dated 2017):
Where two headings read alike, the source gives them in different places.

Key:
[1] = tested on: SGK-1 dependent phosphorylation of GSK3beta in U2OS cells; assay: SGK-1 dependent phosphorylation of GSK3beta in U2OS cells overexpressing recombinant SGK-1 and GSK3beta; format: cell-based, human; conditions: U2OS cells, 6 h incubation, ratio of phosphorylated GSK3beta to total GSK3beta, read-out: IC50 values for inhibition of SGK-1 dependent phosphorylation of GSK3beta in U2OS cells
[2] = target: recombinant human SGK-1 enzyme (Homo sapiens, UniProt O00141); assay: Enzymatic activity assay: SGK-1 substrate peptide phosphorylation (Caliper lab-chip mobility shift); format: biochemical
[3] = peptide substrate 1 μM, ATP 10 μM, 60 min at 37° C., read-out: IC50 values for inhibition of SGK-1 enzymatic activity

recombinant human SGK-1 enzyme, sequence (O00141 whole entry, looked up): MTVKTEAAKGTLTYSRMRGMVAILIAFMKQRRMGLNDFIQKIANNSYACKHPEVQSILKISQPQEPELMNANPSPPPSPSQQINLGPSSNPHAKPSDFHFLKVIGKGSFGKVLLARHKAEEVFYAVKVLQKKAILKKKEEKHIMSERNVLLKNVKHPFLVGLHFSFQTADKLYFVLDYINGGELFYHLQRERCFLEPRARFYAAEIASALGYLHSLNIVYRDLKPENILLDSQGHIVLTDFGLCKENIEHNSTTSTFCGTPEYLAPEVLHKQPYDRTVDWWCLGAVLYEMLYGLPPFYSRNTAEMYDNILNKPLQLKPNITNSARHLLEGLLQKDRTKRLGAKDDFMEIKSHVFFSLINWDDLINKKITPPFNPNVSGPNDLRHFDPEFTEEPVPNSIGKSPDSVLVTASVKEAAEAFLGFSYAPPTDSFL

CC(C)COc1nc(-c2ccc(NS(=O)(=O)c3cccc(F)c3Cl)cc2)nc2[nH]nc(N)c12 [Example 324]
IC50 [1]: 330 nM
IC50 [2, 3]: 330 nM

COc1ccc(F)c(S(=O)(=O)Nc2ccc(-c3nc(OCC(C)C)c4c(N)n[nH]c4n3)cc2)c1 [Example 326]
IC50 [1]: 160 nM
IC50 [2, 3]: 9.1 nM

CC(C)COc1nc(-c2ccc(NS(=O)(=O)c3cccc(Cl)c3F)cc2)nc2[nH]nc(N)c12 [Example 327]
IC50 [1]: 430 nM
IC50 [2, 3]: 420 nM

CC(C)COc1nc(-c2ccc(NS(=O)(=O)c3cc(Cl)sc3Cl)cc2)nc2[nH]nc(N)c12 [Example 330]
IC50 [1]: 230 nM
IC50 [2, 3]: 100 nM

CC(C)COc1nc(-c2ccc(NS(=O)(=O)c3ccccc3F)cc2)nc2[nH]nc(N)c12 [Example 331]
IC50 [1]: 240 nM
IC50 [2, 3]: 290 nM

COc1ccc(Cl)c(S(=O)(=O)Nc2ccc(-c3nc(OCC(C)C)c4c(N)n[nH]c4n3)cc2)c1 [Example 332]
IC50 [1]: 190 nM
IC50 [2, 3]: 27 nM

Cc1ccc(C#N)c(S(=O)(=O)Nc2ccc(-c3nc(OCC(C)C)c4c(N)n[nH]c4n3)cc2)c1 [Example 333]
IC50 [1]: 1300 nM
IC50 [2, 3]: 14 nM

CC(C)COc1nc(-c2ccc(NS(=O)(=O)c3cc(Cl)ccc3F)cc2)nc2[nH]nc(N)c12 [Example 334]
IC50 [1]: 720 nM
IC50 [2, 3]: 20 nM

CC(C)Oc1nc(-c2ccc(NS(=O)(=O)c3cc(Cl)ccc3Cl)cc2)nc2[nH]nc(N)c12 [Example 335]
IC50 [1]: 350 nM
IC50 [2, 3]: 8.3 nM

COc1ccc(C#N)c(S(=O)(=O)Nc2ccc(-c3nc(OCC(C)C)c4c(N)n[nH]c4n3)cc2)c1 [Example 336]
IC50 [1]: 190 nM
IC50 [2, 3]: 5.5 nM

Cc1ccc(F)c(S(=O)(=O)Nc2ccc(-c3nc(OC4CCCNC4)c4c(C)n[nH]c4n3)cc2)c1 (stereo not drawn) [Example 338]
IC50 [1]: 44 nM
IC50 [2, 3]: 1.6 nM

Cc1n[nH]c2nc(-c3ccc(NS(=O)(=O)c4cc(Cl)ccc4F)cc3)nc(OC3CCCNC3)c12 (stereo not drawn) [Example 339]
IC50 [1]: 45 nM
IC50 [2, 3]: 1.3 nM

COc1ccc(Cl)c(S(=O)(=O)Nc2ccc(-c3nc(OC4CCN(CCF)CC4)c4c(C)n[nH]c4n3)cc2)c1 [Example 341]
IC50 [1]: 63 nM
IC50 [2, 3]: 4.9 nM

Cc1n[nH]c2nc(-c3ccc(NS(=O)(=O)c4cc(Cl)ccc4Cl)cc3)nc(OC3CCN(CCF)CC3)c12 [Example 342]
IC50 [1]: 280 nM
IC50 [2, 3]: 6 nM

Cc1ccc(C#N)c(S(=O)(=O)Nc2ccc(-c3nc(OC4CCN(CCF)CC4)c4c(C)n[nH]c4n3)cc2)c1 [Example 343]
IC50 [1]: 68 nM
IC50 [2, 3]: 3.8 nM

Cc1n[nH]c2nc(-c3ccc(NS(=O)(=O)c4cc(Cl)ccc4Cl)c(F)c3)ncc12 [Example 434]
IC50 [1]: 3500 nM
IC50 [2, 3]: 1.8 nM

O=S(=O)(Nc1ccc(-c2nc(N3CC(O)C3)c3cn[nH]c3n2)cc1F)c1cc(Cl)ccc1Cl [Example 437]
IC50 [1]: 1800 nM
IC50 [2, 3]: 100 nM

O=S(=O)(Nc1ccc(-c2nc(N3CCC(O)C3)c3cn[nH]c3n2)cc1F)c1cc(Cl)ccc1Cl (stereo not drawn) [Example 438]
IC50 [1]: 7800 nM
IC50 [2, 3]: 85 nM

O=S(=O)(Nc1ccc(-c2nc(N3CC(CO)C3)c3cn[nH]c3n2)cc1F)c1cc(Cl)ccc1F [Example 441]
IC50 [1]: 11000 nM
IC50 [2, 3]: 21 nM

O=S(=O)(Nc1ccc(-c2nc(OC3CNC3)c3cn[nH]c3n2)cc1F)c1cc(Cl)ccc1F [Example 442]
IC50 [1]: 1300 nM
IC50 [2, 3]: 29 nM

O=S(=O)(Nc1ccc(-c2nc(C3CC3)c3cn[nH]c3n2)cc1F)c1cc(Cl)ccc1F [Example 443]
IC50 [1]: 320 nM
IC50 [2, 3]: 94 nM

Nc1n[nH]c2nc(-c3ccc(NS(=O)(=O)c4cc(Cl)ccc4Cl)cc3)ncc12 [Example 452]
IC50 [1]: 980 nM
IC50 [2, 3]: 2 nM

Cc1ccc(F)c(S(=O)(=O)Nc2ccc(-c3ncc4c(N)n[nH]c4n3)cc2)c1 [Example 455]
IC50 [1]: 390 nM
IC50 [2, 3]: < 1.5 nM

N#Cc1c(Cl)cccc1S(=O)(=O)Nc1ccc(-c2ncc3c(N)n[nH]c3n2)cc1 [Example 456]
IC50 [1]: 8900 nM
IC50 [2, 3]: 6.2 nM

Nc1n[nH]c2nc(-c3ccc(NS(=O)(=O)c4cc5c(cc4Br)OCCCO5)cc3)ncc12 [Example 459]
IC50 [1]: 4000 nM
IC50 [2, 3]: 6.7 nM

Nc1n[nH]c2nc(-c3ccc(NS(=O)(=O)c4cc(Cl)sc4Cl)cc3)ncc12 [Example 463]
IC50 [1]: 120 nM
IC50 [2, 3]: 2.5 nM

Cc1nc(-c2ccc(NS(=O)(=O)c3cc(Cl)ccc3F)cc2)nc2[nH]nc(N)c12 [Example 466]
IC50 [1]: 260 nM
IC50 [2, 3]: < 1.5 nM

Cc1nc(-c2ccc(NS(=O)(=O)c3cccc(Cl)c3C#N)cc2)nc2[nH]nc(N)c12 [Example 470]
IC50 [1]: 2000 nM
IC50 [2, 3]: 11 nM

Cc1ccc(F)c(S(=O)(=O)Nc2ccc(-c3nc(C)c4c(N)n[nH]c4n3)cc2)c1 [Example 472]
IC50 [1]: 330 nM
IC50 [2, 3]: 1.5 nM

Cc1ccc(C#N)cc1S(=O)(=O)Nc1ccc(-c2nc(C)c3c(N)n[nH]c3n2)cc1 [Example 473]
IC50 [1]: 8200 nM
IC50 [2, 3]: 32 nM

Cc1nc(-c2ccc(NS(=O)(=O)c3cccc(F)c3C#N)cc2)nc2[nH]nc(N)c12 [Example 474]
IC50 [1]: 11000 nM
IC50 [2, 3]: 12 nM

Cc1nc(-c2ccc(NS(=O)(=O)c3cc4c(cc3Cl)OCCCO4)cc2)nc2[nH]nc(N)c12 [Example 476]
IC50 [1]: 3000 nM
IC50 [2, 3]: 3.9 nM

Cc1nc(-c2ccc(NS(=O)(=O)c3cc4c(cc3Br)OCCCO4)cc2)nc2[nH]nc(N)c12 [Example 477]
IC50 [1]: 4500 nM
IC50 [2, 3]: 4.8 nM

Cc1nc(-c2ccc(NS(=O)(=O)c3cc(F)cc(F)c3Cl)cc2)nc2[nH]nc(N)c12 [Example 479]
IC50 [1]: 280 nM
IC50 [2, 3]: 16 nM

COc1ccc(Cl)c(S(=O)(=O)Nc2ccc(-c3nc(C)c4cn[nH]c4n3)cc2)c1 [Example 491]
IC50 [1]: 2000 nM
IC50 [2, 3]: 1.8 nM

Cc1nc(-c2ccc(NS(=O)(=O)c3cc(Cl)ccc3C#N)cc2)nc2[nH]nc(N3CCCC4(COC4)C3)c12 [Example 499]
IC50 [1]: 8800 nM
IC50 [2, 3]: 8.9 nM

Nc1n[nH]c2nc(-c3ccc(NS(=O)(=O)c4cc(Cl)sc4Cl)cc3)nc(C3CC3)c12 [Example 500]
IC50 [1]: 250 nM
IC50 [2, 3]: 2.7 nM

COCCc1nc(-c2ccc(NS(=O)(=O)c3cc(Cl)c(F)cc3F)cc2)nc2[nH]nc(N)c12 [Example 501]
IC50 [1]: 450 nM
IC50 [2, 3]: 40 nM

COCCc1nc(-c2ccc(NS(=O)(=O)c3cc(OC)ccc3Cl)cc2)nc2[nH]nc(N)c12 [Example 502]
IC50 [1]: 420 nM
IC50 [2, 3]: 18 nM

COCCc1nc(-c2ccc(NS(=O)(=O)c3cc(C)ccc3F)cc2)nc2[nH]nc(N)c12 [Example 503]
IC50 [1]: 630 nM
IC50 [2, 3]: 29 nM

COCCc1nc(-c2ccc(NS(=O)(=O)c3cc(OC)ccc3F)cc2)nc2[nH]nc(N)c12 [Example 504]
IC50 [1]: 300 nM
IC50 [2, 3]: 12 nM

COCCc1nc(-c2ccc(NS(=O)(=O)c3cc(Cl)ccc3Cl)cc2)nc2[nH]nc(N)c12 [Example 505]
IC50 [1]: 620 nM
IC50 [2, 3]: 47 nM

COCCc1nc(-c2ccc(NS(=O)(=O)c3cc(Cl)ccc3F)cc2)nc2[nH]nc(N)c12 [Example 506]
IC50 [1]: 670 nM
IC50 [2, 3]: 110 nM

COCCc1nc(-c2ccc(NS(=O)(=O)c3cc(Cl)sc3Cl)cc2)nc2[nH]nc(N)c12 [Example 509]
IC50 [1]: 2500 nM
IC50 [2, 3]: 310 nM

COCCc1nc(-c2ccc(NS(=O)(=O)c3cc(C)ccc3C#N)cc2)nc2[nH]nc(N)c12 [Example 513]
IC50 [1]: 300 nM
IC50 [2, 3]: 68 nM

Nc1n[nH]c2nc(-c3ccc(NS(=O)(=O)c4cc(F)c(F)cc4Cl)cc3)ncc12 [Example 514]
IC50 [1]: 270 nM
IC50 [2, 3]: 250 nM

Nc1n[nH]c2nc(-c3ccc(NS(=O)(=O)c4cccc(Cl)c4F)cc3)ncc12 [Example 515]
IC50 [1]: 530 nM
IC50 [2, 3]: 350 nM

Nc1n[nH]c2nc(-c3ccc(NS(=O)(=O)c4cc(F)c(F)cc4F)cc3)ncc12 [Example 516]
IC50 [1]: 640 nM
IC50 [2, 3]: 300 nM

Nc1n[nH]c2nc(-c3ccc(NS(=O)(=O)c4ccccc4F)cc3)ncc12 [Example 517]
IC50 [1]: 170 nM
IC50 [2, 3]: 420 nM

COCCc1nc(-c2ccc(NS(=O)(=O)c3cc(OC)ccc3C#N)cc2)nc2[nH]nc(N)c12 [Example 521]
IC50 [1]: 480 nM
IC50 [2, 3]: 65 nM

COc1ccc(C#N)c(S(=O)(=O)Nc2ccc(-c3ncc4c(N)n[nH]c4n3)cc2)c1 [Example 522]
IC50 [1]: 290 nM
IC50 [2, 3]: 2.4 nM

COc1cc(-c2ncc3c(C)n[nH]c3n2)ccc1NS(=O)(=O)c1cc(Cl)ccc1Cl [Example 534, 2,5-Dichloro-N-[2-methoxy-4-(3-methyl-1H-pyrazolo[3,4-d]pyrimidin-6-yl)-phenyl]-benzenesulfonamide]
IC50 ([1]; Homo sapiens): 350 nM
IC50 ([2]; read-out: IC50 values for inhibition of SGK-1 enzymatic activity, peptide substrate 1 μM, ATP 10 μM, 60 min at 37° C.): < 1.5 nM

Nc1n[nH]c2cc(-c3ccc(NS(=O)(=O)c4cc(Cl)sc4Cl)cc3)ncc12 [Example 558]
IC50 [1]: 520 nM
IC50 [2, 3]: 13 nM

Nc1n[nH]c2cc(-c3ccc(NS(=O)(=O)c4cc(Cl)ccc4F)cc3)ncc12 [Example 559]
IC50 [1]: 390 nM
IC50 [2, 3]: 19 nM
